The results in this text go back to patent US8859574B2 (IRM LLC, priority 2008, dated 2014).

pIC50: −log10 of the molar value.

For the assay, the target named is T1, IGF-1R Ba/F3 (Homo sapiens, UniProt P08069).
T1 construct: fused on or other part: TEL- (or BCR-) IGF-1R in Ba/F3: the kinase part holds the site
T1 sequence (P08069 999-1274 limits assumed): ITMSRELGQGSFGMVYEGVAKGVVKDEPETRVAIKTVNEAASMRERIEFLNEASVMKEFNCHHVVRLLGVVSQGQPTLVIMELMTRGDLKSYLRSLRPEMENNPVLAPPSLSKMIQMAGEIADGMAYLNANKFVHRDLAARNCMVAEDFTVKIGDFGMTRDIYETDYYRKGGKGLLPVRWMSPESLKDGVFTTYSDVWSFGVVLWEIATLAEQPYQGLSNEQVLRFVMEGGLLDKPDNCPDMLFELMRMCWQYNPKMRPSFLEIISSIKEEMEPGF
As to the kind of experiment: Ba/F3 Cell Viability Inhibition Assay (IGF-1R Ba/F3). It is filed as cell-based, murine. Conditions: Tel-TK transformed Ba/F3 cells, 48 hours, Britelite luminescence. An outline of the steps: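 A 48 h compound treatment at 37 °C (3750 cells/well) was followed by Britelite luminescence to measure viability. Cells were Ba/F3 pro-B cells, IL-3-independent via TEL-fused IGF-1R kinase transduction. A logistic fit gave IC50 as 50% viability relative to DMSO control.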
What is called pIC50 is −log10 of the IC50, conventionally taken in molar units. Read a high pIC50 as a low IC50. As to `CNC(=O)CN1CCC(c2cc(F)c(Nc3ncc(Cl)c(Nc4cc(C5CC5)[nH]n4)n3)cc2C)CC1` [Compound 32, 2-(4-(4-(5-chloro-4-(5-cyclopropyl-1H-pyrazol-3-ylamino)pyrimidin-2-ylamino)-5-fluoro-2-methylphenyl)piperidin-1-yl)-N-methylacetamide], the negative logarithm of the IC50 (pIC50) is 7.38.
The compound `Cc1cc(Nc2nc(Nc3cc(C)c(C4CCN(CC(F)(F)F)CC4)cc3F)ncc2Cl)n[nH]1` [Compound 26, 5-chloro-N2-(2-fluoro-5-methyl-4-(1-(2,2,2-trifluoroethyl)piperidin-4-yl)phenyl)-N4-(5-methyl-1H-pyrazol-3-yl)pyrimidine-2,4-diamine] showed a pIC50 of 6.85.
`Cc1cc(Nc2nc(Nc3cc(C)c(C4CCN(C(=O)CN)CC4)cc3F)ncc2Cl)n[nH]1` [Compound 79, 2-amino-1-(4-(4-(5-chloro-4-(5-methyl-1H-pyrazol-3-ylamino)pyrimidin-2-ylamino)-5-fluoro-2-methylphenyl)piperidin-1-yl)ethanone] showed a pIC50 of 7.12.
`Cc1cc(Nc2nc(Nc3cc(C)c(C4CCN(C(=O)C5CCCC(=O)N5)CC4)cc3F)ncc2Cl)n[nH]1` (centres unmarked) [Compound 142, 6-(4-(4-(5-chloro-4-(5-methyl-1H-pyrazol-3-ylamino)pyrimidin-2-ylamino)-5-fluoro-2-methylphenyl)piperidine-1-carbonyl)piperidin-2-one]: the negative-log IC50 (pIC50) was 6.55.
In the case of `Cc1cc(Nc2nc(Nc3cc(C)c(C4CCN(CC5(C#N)CC5)CC4)cc3C)ncc2Cl)n[nH]1` [Compound 198, 1-((4-(4-(5-chloro-4-(5-methyl-1H-pyrazol-3-ylamino)pyrimidin-2-ylamino)-2,5-dimethylphenyl)piperidin-1-yl)methyl)cyclopropanecarbonitrile], the negative logarithm of the IC50 (pIC50) was 7.66.
For the compound `Cc1cc(Nc2nc(Nc3cc(C)c(C4CCN(C(=O)c5nc(C(C)C)no5)CC4)cc3C)ncc2Cl)n[nH]1` [Compound 270, (4-(4-(5-chloro-4-(5-methyl-1H-pyrazol-3-ylamino)pyrimidin-2-ylamino)-2,5-dimethylphenyl)piperidin-1-yl)(3-isopropyl-1,2,4-oxadiazol-5-yl)methanone], the pIC50 is 7.74.
Turning to `Cc1cc(Nc2nc(Nc3cc(C)c(C4CCN(C(=O)[C@@H]5CCCN5)CC4)cc3F)ncc2Cl)n[nH]1` [Compound 116, (S)-(4-(4-(5-chloro-4-(5-methyl-1H-pyrazol-3-ylamino)pyrimidin-2-ylamino)-5-fluoro-2-methylphenyl)piperidin-1-yl)(pyrrolidin-2-yl)methanone], the pIC50 was 6.86.
`CCc1cnc(N2CCC(c3cc(F)c(Nc4ncc(Cl)c(Nc5cc(C)[nH]n5)n4)cc3C)CC2)nc1` [Compound 149, 5-Chloro-N2-(4-(1-(5-ethylpyrimidin-2-yl)piperidin-4-yl)-2-fluoro-5-methylphenyl)-N4-(5-methyl-1H-pyrazol-3-yl)pyrimidine-2,4-diamine]: the negative logarithm of the IC50 (pIC50) is 6.02.
The compound `Cc1cc(Nc2nc(Nc3cc(C)c(C4CCN(C5CCN(C(=O)OC(C)(C)C)C5)CC4)cc3F)ncc2Cl)n[nH]1` (centres unmarked) [Compound 291, tert-butyl 3-(4-(4-(5-chloro-4-(5-methyl-1H-pyrazol-3-ylamino)pyrimidin-2-ylamino)-5-fluoro-2-methylphenyl)piperidin-1-yl)pyrrolidine-1-carboxylate] had a negative-log IC50 (pIC50) of 7.17.
Turning to `Cc1cc(Nc2nc(Nc3cc(C)c(C4CCN(C(=O)c5ocnc5C)CC4)cc3F)ncc2Cl)n[nH]1` [Compound 136, (4-(4-(5-chloro-4-(5-methyl-1H-pyrazol-3-ylamino)pyrimidin-2-ylamino)-5-fluoro-2-methylphenyl)piperidin-1-yl)(4-methyloxazol-5-yl)methanone], the negative-log IC50 (pIC50) is 7.46.
`CNC(=O)C(C)N1CCC(c2cc(F)c(Nc3ncc(Cl)c(Nc4cc(C)[nH]n4)n3)cc2C)CC1` (centres unmarked) [Compound 50, 2-(4-(4-(5-chloro-4-(5-methyl-1H-pyrazol-3-ylamino)pyrimidin-2-ylamino)-5-fluoro-2-methylphenyl)piperidin-1-yl)-N-methylpropanamide]: the pIC50 was 7.66.
On to `Cc1cc(Nc2nc(Nc3cc(C)c(C4CCN(C5CC5)CC4)cc3F)ncc2Cl)n[nH]1` [Compound 210, 5-chloro-N^2-(4-(1-cyclopropylpiperidin-4-yl)-2-fluoro-5-methylphenyl)-N^4-(5-methyl-1H-pyrazol-3-yl)pyrimidine-2,4-diamine], for which the negative logarithm of the IC50 (pIC50) is 7.49.
Turning to `Cc1ccc(N2CCC(c3cc(F)c(Nc4ncc(Cl)c(Nc5cc(C)[nH]n5)n4)cc3C)CC2)nn1` [Compound 277, 5-Chloro-N2-(2-fluoro-5-methyl-4-(1-(6-methylpyridazin-3-yl)piperidin-4-yl)phenyl)-N4-(5-methyl-1H-pyrazol-3-yl)pyrimidine-2,4-diamine], the pIC50 is 7.01.
In turn, `COc1cc(Nc2ncc(Cl)c(Nc3cc(C)[nH]n3)n2)c(C)cc1C1CCN(C[C@@H](O)C(F)(F)F)CC1` [Compound 228, (R)-3-(4-(4-(5-chloro-4-(5-methyl-1H-pyrazol-3-ylamino)pyrimidin-2-ylamino)-2-methoxy-5-methylphenyl)piperidin-1-yl)-1,1,1-trifluoropropan-2-ol] had a pIC50 of 7.64.
The compound `Cc1cc(Nc2nc(Nc3cc(C)c(C4CCN(C(=O)C(C)N)CC4)cc3F)ncc2Cl)n[nH]1` (centres unmarked) [Compound 86, 2-amino-1-(4-(4-(5-chloro-4-(5-methyl-1H-pyrazol-3-ylamino)pyrimidin-2-ylamino)-5-fluoro-2-methylphenyl)piperidin-1-yl)propan-1-one] gave a pIC50 of 6.85.
Compound `Cc1cc(Nc2nc(Nc3cc(C)c(C4CCNCC4)cc3F)ncc2Cl)n[nH]1` [Compound 2, 5-chloro-N2-(2-fluoro-5-methyl-4-(piperidin-4-yl)phenyl)-N4-(5-methyl-1H-pyrazol-3-yl)pyrimidine-2,4-diamine] showed a pIC50 of 7.30.
As to `CC[N+]1([O-])CCC(c2cc(F)c(Nc3ncc(Cl)c(Nc4cc(C)[nH]n4)n3)cc2C)CC1` (centres unmarked) [Compound 289, 4-(4-(5-chloro-4-(5-methyl-1H-pyrazol-3-ylamino)pyrimidin-2-ylamino)-5-fluoro-2-methylphenyl)-1-ethylpiperidine-1-oxide], the negative logarithm of the IC50 (pIC50) was 6.43.
In turn, `Cc1cc(Nc2nc(Nc3cc(C)c(C4CCN(C(=O)CN(C)C)CC4)cc3C)ncc2Cl)n[nH]1` [Compound 75, 1-(4-(4-(5-chloro-4-(5-methyl-1H-pyrazol-3-ylamino)pyrimidin-2-ylamino)-2,5-dimethylphenyl)piperidin-1-yl)-2-(dimethylamino)ethanone] had a pIC50 of 7.96.
For `Cc1cc(Nc2nc(Nc3cc(C)c(C4CCN(CC5CC5(F)F)CC4)cc3C)ncc2Cl)n[nH]1` (centres unmarked) [Compound 249, 5-chloro-N2-(4-(1-((2,2-difluorocyclopropyl)methyl)piperidin-4-yl)-2,5-dimethylphenyl)-N4-(5-methyl-1H-pyrazol-3-yl)pyrimidine-2,4-diamine], the negative logarithm of the IC50 (pIC50) was 7.49.
With `Cc1cc(Nc2nc(Nc3cc(C)c(C4CCN(C(=O)C5CCN(C)CC5)CC4)cc3F)ncc2Cl)n[nH]1` [Compound 118, (4-(4-(5-chloro-4-(5-methyl-1H-pyrazol-3-ylamino)pyrimidin-2-ylamino)-5-fluoro-2-methylphenyl)piperidin-1-yl)(1-methylpiperidin-4-yl)methanone], the negative logarithm of the IC50 (pIC50) is 7.09.
